{
  "source": "patent US20180369238A1",
  "about": "“DOPAMINE AGONISTS IN TREATING ALCOHOL USE DISORDERS ASSOCIATED WITH DOPAMINE RECEPTOR ACTIVITY” (MUSC Foundation for Research Development, priority 2017, published 2018)",
  "key": {"[1]": {"tested_on": "non-treatment-seeking AUD individuals", "assay": "Bar-lab paradigm (alcohol self-administration)", "format": "in vivo, human", "details": "for Bar Lab Drinks: effect size of interaction medication x genotype permutation: n = 94", "excerpt": "(§1) The study was an eight-day sub-acute dosing human laboratory investigation (ClinicalTrials.gov identifier: NCT01292057). After randomization to study medication, subjects underwent an fMRI alcohol cue-reactivity task on day 7 of medication ingestion and a bar-lab paradigm on day 8. To maximize cue-reactivity and motivation to drink, they were instructed to abstain from alcohol on the evenings of days 6 and 7.\n(§2) Randomization and medication. […] Subjects and investigators were blind to both genotype and medication assignment. Thus, subjects were stratified by their baseline Barratt Impulsiveness Scale (BIS-11) score (Patton et al., 1995) into groups with BIS-11 scores greater vs. less than the median score of 68 and randomization was conducted separately within each stratum. Urn variables balanced across medication groups within each stratum were sex and smoking status.\nBar-lab paradigm. […] Thirty minutes later, they were provided a standard caloric lunch, adjusted for gender and weight. At 2:00 PM, subjects were administered a priming drink of their preferred 80-proof liquor in a 1:3 ratio with juice, adjusted for gender, age, and weight to produce a targeted BAC of 30 mg %, and instructed to consume it within five minutes. Forty minutes later, subjects were presented a tray of four drinks, each with a targeted BAC of 15 mg %, and told they could consume as many as they desired over the next hour. After an hour, this tray was removed and another tray of four drinks was made available for consumption over a second hour. To create a decisional balance between drinking and abstaining, subjects were given a “bar credit” of $16 with which to “purchase” drinks, at the cost of $2/drink. After the procedure, subjects were given dinner and remained until 10:00 PM. A BAC measurement below 20 mg % was required before departure, and a friend or taxi drove subjects home.\n(§3) Statistical analysis. The general linear model (GLM; SPSS 23, IBM, Armonk, N.Y., United States of America) was used to test the interaction between medication and DAT1/SLC6A3 genotype on the primary outcomes (VS ALC vs. BEV activation and the number of drinks consumed in the bar lab). A model that included between-subjects factors for medication, DAT1/SLC6A3 genotype, and their interaction was tested for each outcome. Analyses first compared 9R carriers to 10R homozygotes, and subsequently examined the additive effect of the 9R allele. […] Significant interactions were followed up with simple effects contrasts. VS activation was also analyzed for correlation (Pearson's r) with day 7 OCDS scores and bar-lab drinking.\nThe GLM was also used to test the interaction between medication and a DA-related genetic composite on the primary outcomes. The DAT1/SLC6A3 9R, COMT met, DRD2 T, and DRD4 long alleles were categorized as higher-DA alleles, and the total number of alleles each subject carried was calculated (Table 2). Few subjects carried more than four higher-DA alleles (four subjects had five alleles and one had seven), so these subjects were combined with those who carried four, yielding five groups of subjects with zero (n=7), one (n=15), two (n=31), three (n=22), or four or more (n=18) alleles. A model that included between-subjects factors for medication, the additive effect of the number of higher-DA alleles, and their interaction was tested for each outcome."}, "[2]": {"tested_on": "non-treatment-seeking AUD individuals", "assay": "Adverse effects, physical symptom checklist", "format": "in vivo, human", "details": "for Number of subjects with insomnia severity Mild / Number of subjects with insomnia severity Moderate / Number of subjects with insomnia severity None / Number of subjects with insomnia severity Severe: APZ group", "excerpt": "Adverse effects. A physical symptom checklist was used to assess the presence and severity (self-rated as none, mild, moderate, or severe) of 21 possible adverse effects at baseline and on day 8 immediately before the bar-lab paradigm.\nFor the secondary outcome (adverse effect severity), the GLM was first used to evaluate the main effect of medication on the presence/absence of each effect. […] To account for the influence of these effects on the pharmacogenetic interactions evaluated above, the presence/absence of each was evaluated as a covariate in all models."}, "[3]": {"tested_on": "non-treatment-seeking AUD individuals", "assay": "fMRI alcohol cue-reactivity task (alcohol cue-elicited ventral striatal activation)", "format": "in vivo, human", "design": "VS Activation: effect size of interaction medication x genotype permutation: scale not given here", "details": "for Alcohol cue-elicited VS activation (ALC vs. BEV percent signal change): APZ relative to placebo, day 7; for VS Activation: effect size of interaction medication x genotype permutation: n = 81", "excerpt": "as §1, §2\nNeuroimaging. On day 7, subjects were breathalyzed, assessed for alcohol withdrawal, and re-administered the OCDS. As noted above, one subject with a BAC>0 and two subjects with Clinical Institute Withdrawal Assessment for Alcohol-Revised scores >4 were excluded from scanning. After acquisition of a high-resolution anatomical image, subjects were given a sip (10 ml) of their preferred 80-proof liquor mixed with fruit juice and administered a 12-m-long task during which they passively viewed pseudo-randomly interspersed blocks of alcoholic beverage images (ALC; equally distributed between beer, wine, and liquor), nonalcoholic beverage images (BEV), blurred versions of these images that served as visual controls, and a fixation cross. Each 24-s-long block comprised only one image type and was followed by a 6-s period during which subjects were instructed to rate their urge for alcohol. Images were selected from a normative set, supplemented with images from advertisements, and matched for intensity, color, and complexity. This task consistently elicits robust cue-elicited VS activation among non-treatment-seeking AUD individuals.\nFunctional images were acquired with a gradient echo, echo-planar imaging sequence implemented on a 3T TIM Trio scanner (Siemens, Erlangen, Germany). Acquisition parameters were: repetition/echo times=2200/35 ms; 328 volumes; flip angle=90°; field of view=192 mm; matrix=64×64; voxel size=3.0×3.0 mm; 36 contiguous 3.0-mm-thick transverse slices. Using FEAT (fMRI Expert Analysis Tool) v. 6.00, part of FSL (FMRIB Software Library, University of Oxford, United Kingdom), functional images were realigned to the middle volume, spatially smoothed (8-mm full width at half maximum kernel), resampled to 2-mm isotropic voxels, and registered, first to the subject's high-resolution anatomical image and subsequently to the Montreal Neurological Institute (MNI; Montréal, Canada) 152-subject-average template. Based on previous data indicating an interaction between DAT1/SLC6A3 genotype and naltrexone on alcohol cue-elicited VS activation, the right VS was defined a priori as a 6-mm-radius sphere centered at the point [12 15 −6] in MNI space. For each subject, this sphere was reverse-registered from the MNI-152 image to the subject's anatomical image, and the average percentage change of the blood-oxygen-level-dependent signal between ALC and BEV blocks (i.e., ALC vs. BEV percent signal change) was extracted.\nas §3, with “VS activation was also analyzed for correlation (Pearson's r) with day 7 OCDS scores and bar-lab drinking.” left out"}, "AUD": {"tested_on": "AUD", "details": "multisite AUD clinical trial; cited from earlier work"}, "[4]": {"details": "cited from earlier work"}, "healthy adults": {"tested_on": "healthy adults", "details": "relative to placebo; healthy adults who carried more higher-DA alleles; cited from earlier work"}, "[5]": {"details": "9R carriers vs. 10R homozygotes, APZ vs. placebo"}, "[6]": {"details": "DAT1 (additive effect of 9R alleles), APZ reduced more with more alleles"}, "[7]": {"details": "DAT1 (additive effect of 9R alleles), APZ reduced more with more alleles, listed as aripiprazole"}, "[8]": {"details": "DAT1 + COMT + DRD2 + DRD4 (higher-DA alleles composite)"}},
  "data": [
    {"molecule": "O=C1CCc2ccc(OCCCCN3CCN(c4cccc(Cl)c4Cl)CC3)cc2N1", "note": "[APZ, aripiprazole]", "values": [
      {"measurement": "Effect size (partial η2) of interaction medication x DAT1/SLC6A3 genotype on bar-lab drinking", "setting": "[1]; [5]", "value": 0.064},
      {"measurement": "Bar-lab drinking (number of drinks consumed)", "setting": "[1]; APZ relative to placebo, DAT1/SLC6A3 9R carriers, day 8", "value": "reduced drinking"},
      {"measurement": "Effect size (partial η2) of main effect of medication on bar-lab drinking", "setting": "[1]; APZ vs. placebo, all subjects", "value": 0.049},
      {"measurement": "Bar Lab Drinks: effect size of interaction medication x genotype permutation", "setting": "[1]; [6]", "value": 0.068},
      {"measurement": "Bar Lab Drinks: effect size of interaction medication x genotype permutation", "setting": "[1]; [7]", "value": 0.050},
      {"measurement": "Bar Lab Drinks: effect size of interaction medication x genotype permutation", "setting": "[1]; [8]", "value": 0.069},
      {"measurement": "Bar Lab Drinks: effect size of interaction medication x genotype permutation", "setting": "[1]; DAT1 + COMT + DRD2", "value": 0.100},
      {"measurement": "Bar Lab Drinks: effect size of interaction medication x genotype permutation", "setting": "[1]; DAT1 + COMT + DRD4", "value": 0.071},
      {"measurement": "Bar Lab Drinks: effect size of interaction medication x genotype permutation", "setting": "[1]; DAT1 + COMT", "value": 0.079},
      {"measurement": "Bar Lab Drinks: effect size of interaction medication x genotype permutation", "setting": "[1]; DAT1 + DRD2 + DRD4", "value": 0.072},
      {"measurement": "Bar Lab Drinks: effect size of interaction medication x genotype permutation", "setting": "[1]; DAT1 + DRD2", "value": 0.081},
      {"measurement": "Bar Lab Drinks: effect size of interaction medication x genotype permutation", "setting": "[1]; DAT1 + DRD4", "value": 0.045},
      {"measurement": "Effect size (partial η2) of simple effect of medication on bar-lab drinking", "setting": "[1]; among DAT1/SLC6A3 9R carriers, APZ vs. placebo", "value": 0.12},
      {"measurement": "Effect size (partial η2) of simple effect of medication on bar-lab drinking", "setting": "[1]; among subjects with four or more higher-DA alleles, APZ vs. placebo", "value": 0.15},
      {"measurement": "Number of subjects with insomnia severity Mild", "setting": "[2]; 9R carriers", "value": 11},
      {"measurement": "Number of subjects with insomnia severity Moderate", "setting": "[2]; 9R carriers", "value": 6},
      {"measurement": "Number of subjects with insomnia severity None", "setting": "[2]; 9R carriers", "value": 11},
      {"measurement": "Number of subjects with insomnia severity Severe", "setting": "[2]; 9R carriers", "value": 0},
      {"measurement": "Number of subjects with insomnia severity Mild", "setting": "[2]; 10R homozygotes", "value": 8},
      {"measurement": "Number of subjects with insomnia severity Moderate", "setting": "[2]; 10R homozygotes", "value": 4},
      {"measurement": "Number of subjects with insomnia severity None", "setting": "[2]; 10R homozygotes", "value": 2},
      {"measurement": "Number of subjects with insomnia severity Severe", "setting": "[2]; 10R homozygotes", "value": 4},
      {"measurement": "Frequency of insomnia, daytime sleepiness, irritability, trouble concentrating, nausea/vomiting, dizziness, fatigue, blurry vision, difficulty reaching orgasm", "setting": "[2]; APZ group vs. placebo, p<0.05, day 8", "value": "significantly more frequent"},
      {"measurement": "Insomnia severity", "setting": "[2]; APZ relative to placebo, DAT1/SLC6A3 9R carriers", "value": "did not"},
      {"measurement": "Insomnia severity", "setting": "[2]; APZ relative to placebo, DAT1/SLC6A3 10R homozygotes", "value": "more severe insomnia"},
      {"measurement": "Insomnia severity", "setting": "[2]; among subjects who received APZ, with a greater number of higher-DA alleles", "value": "less severe"},
      {"measurement": "Effect size (partial η2) of interaction medication x DAT1/SLC6A3 genotype on VS activation", "setting": "[3]; [5]", "value": 0.061},
      {"measurement": "Alcohol cue-elicited VS activation (ALC vs. BEV percent signal change)", "setting": "[3]; DAT1/SLC6A3 9R carriers", "value": "reduced VS activation"},
      {"measurement": "Alcohol cue-elicited VS activation (ALC vs. BEV percent signal change)", "setting": "[3]; DAT1/SLC6A3 10R homozygotes", "value": "increased it"},
      {"measurement": "VS Activation: effect size of interaction medication x genotype permutation", "setting": "[3]; [6]", "value": 0.067},
      {"measurement": "VS Activation: effect size of interaction medication x genotype permutation", "setting": "[3]; [7]", "value": 0.063},
      {"measurement": "VS Activation: effect size of interaction medication x genotype permutation", "setting": "[3]; [8]", "value": 0.051},
      {"measurement": "VS Activation: effect size of interaction medication x genotype permutation", "setting": "[3]; DAT1 + COMT + DRD2", "value": 0.026},
      {"measurement": "VS Activation: effect size of interaction medication x genotype permutation", "setting": "[3]; DAT1 + DRD2 + DRD4", "value": 0.084},
      {"measurement": "VS Activation: effect size of interaction medication x genotype permutation", "setting": "[3]; DAT1 + DRD2", "value": 0.068},
      {"measurement": "VS Activation: effect size of interaction medication x genotype permutation", "setting": "[3]; DAT1 + DRD4", "value": 0.077},
      {"measurement": "Alcohol consumption biomarker", "setting": "AUD", "value": "significantly improve"},
      {"measurement": "Drinks per drinking day", "setting": "AUD", "value": "significantly improve"},
      {"measurement": "Primary drinking outcome (percent days abstinent)", "setting": "AUD", "value": "did not significantly change"},
      {"measurement": "Euphoric effects of alcohol drinking", "setting": "[4]; natural environment or bar-lab setting", "value": "reduce"},
      {"measurement": "Alcohol cue-elicited VS activation", "setting": "[4]; reported earlier", "value": "reduce"}
    ]},
    {"molecule": "CCCN(CCC)CCc1cccc2c1CC(=O)N2", "note": "[ropinirole]", "values": [
      {"measurement": "Impulsive decisions", "setting": "healthy adults", "value": "increased impulsive decisions"}
    ]}
  ]
}
